Measured values as given in the NIST ThermoML archive (doi:10.1021/je800046k).
± gives the expanded uncertainty stated by the source.

Assay: xn = mol fraction of the nth substance listed
Settings: for surface tension liquid-gas: Pendant drop shape; for mass density: 101 kPa, Liquid

CC(=O)OCC(C)C [2-methylpropyl ethanoate] + Cc1cc(C)cc(C)c1
Settings	mass density [kg/m3]	surface tension liquid-gas [mN/m]
298.15 K, x1 = 0.051	861.07 ± 0.55	27.76 ± 0.31
298.15 K, x1 = 0.1006	861.07 ± 0.57	27.49 ± 0.31
298.15 K, x1 = 0.1506	861.09 ± 0.59	27.2 ± 0.31
298.15 K, x1 = 0.2004	861.14 ± 0.62	26.91 ± 0.31
298.15 K, x1 = 0.2498	861.2 ± 0.64	26.62 ± 0.31
298.15 K, x1 = 0.3003	861.29 ± 0.67	26.31 ± 0.32
298.15 K, x1 = 0.35	861.41 ± 0.69	26.04 ± 0.32
298.15 K, x1 = 0.4004	861.56 ± 0.72	25.77 ± 0.32
298.15 K, x1 = 0.4502	861.74 ± 0.75	25.49 ± 0.32
298.15 K, x1 = 0.5004	861.94 ± 0.79	25.23 ± 0.32
298.15 K, x1 = 0.5499	862.17 ± 0.82	24.99 ± 0.32
298.15 K, x1 = 0.5996	862.44 ± 0.86	24.75 ± 0.33
298.15 K, x1 = 0.6494	862.74 ± 0.9	24.52 ± 0.33
298.15 K, x1 = 0.6998	863.09 ± 0.94	24.31 ± 0.33
298.15 K, x1 = 0.7498	863.46 ± 0.98	24.1 ± 0.33
298.15 K, x1 = 0.8007	863.89 ± 1	23.91 ± 0.34
298.15 K, x1 = 0.8502	864.36 ± 1.1	23.7 ± 0.34
298.15 K, x1 = 0.8998	864.88 ± 1.1	23.55 ± 0.34
298.15 K, x1 = 0.9491	865.43 ± 1.2	23.37 ± 0.34
298.15 K, x1 = 1	866.06 ± 1.2	23.15 ± 0.35
308.15 K, x1 = 0.0513	852.75 ± 0.57	26.89 ± 0.3
308.15 K, x1 = 0.0999	852.66 ± 0.59	26.61 ± 0.3
308.15 K, x1 = 0.1503	852.57 ± 0.61	26.3 ± 0.3
308.15 K, x1 = 0.2007	852.51 ± 0.63	26 ± 0.31
308.15 K, x1 = 0.2505	852.48 ± 0.65	25.7 ± 0.31
308.15 K, x1 = 0.3013	852.45 ± 0.68	25.39 ± 0.31
308.15 K, x1 = 0.35	852.46 ± 0.71	25.1 ± 0.31
308.15 K, x1 = 0.4002	852.49 ± 0.74	24.82 ± 0.31
308.15 K, x1 = 0.4506	852.56 ± 0.77	24.55 ± 0.31
308.15 K, x1 = 0.5	852.64 ± 0.8	24.29 ± 0.31
308.15 K, x1 = 0.5505	852.78 ± 0.83	24.03 ± 0.31
308.15 K, x1 = 0.5997	852.91 ± 0.87	23.77 ± 0.32
308.15 K, x1 = 0.6503	853.09 ± 0.91	23.53 ± 0.32
308.15 K, x1 = 0.6995	853.32 ± 0.94	23.32 ± 0.32
308.15 K, x1 = 0.75	853.57 ± 0.98	23.09 ± 0.32
308.15 K, x1 = 0.8002	853.86 ± 1	22.89 ± 0.32
308.15 K, x1 = 0.8502	854.21 ± 1.1	22.7 ± 0.33
308.15 K, x1 = 0.8997	854.61 ± 1.1	22.52 ± 0.33
308.15 K, x1 = 0.9498	855.03 ± 1.2	22.35 ± 0.33
308.15 K, x1 = 1	855.51 ± 1.2	22.16 ± 0.33
313.15 K, x1 = 0.0494	848.6 ± 0.57	26.45 ± 0.3
313.15 K, x1 = 0.1	848.45 ± 0.59	26.14 ± 0.3
313.15 K, x1 = 0.1493	848.33 ± 0.61	25.81 ± 0.3
313.15 K, x1 = 0.2002	848.2 ± 0.64	25.52 ± 0.3
313.15 K, x1 = 0.2499	848.1 ± 0.66	25.2 ± 0.3
313.15 K, x1 = 0.299	848.03 ± 0.69	24.92 ± 0.3
313.15 K, x1 = 0.3492	847.98 ± 0.71	24.62 ± 0.3
313.15 K, x1 = 0.3988	847.95 ± 0.74	24.33 ± 0.3
313.15 K, x1 = 0.4492	847.96 ± 0.77	24.06 ± 0.31
313.15 K, x1 = 0.5003	847.98 ± 0.8	23.78 ± 0.31
313.15 K, x1 = 0.5518	848.05 ± 0.84	23.51 ± 0.31
313.15 K, x1 = 0.5992	848.13 ± 0.87	23.28 ± 0.31
313.15 K, x1 = 0.6503	848.26 ± 0.91	23.02 ± 0.31
313.15 K, x1 = 0.6995	848.41 ± 0.95	22.78 ± 0.31
313.15 K, x1 = 0.7512	848.61 ± 0.99	22.56 ± 0.32
313.15 K, x1 = 0.8005	848.85 ± 1	22.35 ± 0.32
313.15 K, x1 = 0.8499	849.13 ± 1.1	22.14 ± 0.32
313.15 K, x1 = 0.9002	849.43 ± 1.1	21.98 ± 0.32
313.15 K, x1 = 0.9504	849.8 ± 1.2	21.81 ± 0.32
313.15 K, x1 = 1	850.16 ± 1.2	21.64 ± 0.33

CC(=O)OCC(C)C [2-methylpropyl ethanoate] + Cc1ccc(C)c(C)c1
Settings	mass density [kg/m3]	surface tension liquid-gas [mN/m]
298.15 K, x1 = 0.0494	871.36 ± 0.56	28.85 ± 0.33
298.15 K, x1 = 0.0992	871.02 ± 0.58	28.38 ± 0.32
298.15 K, x1 = 0.1493	870.68 ± 0.61	27.89 ± 0.32
298.15 K, x1 = 0.2002	870.35 ± 0.63	27.4 ± 0.32
298.15 K, x1 = 0.2498	870.03 ± 0.66	26.98 ± 0.32
298.15 K, x1 = 0.2989	869.71 ± 0.68	26.61 ± 0.32
298.15 K, x1 = 0.3495	869.39 ± 0.71	26.25 ± 0.32
298.15 K, x1 = 0.3997	869.08 ± 0.74	25.92 ± 0.32
298.15 K, x1 = 0.4505	868.77 ± 0.77	25.59 ± 0.32
298.15 K, x1 = 0.4991	868.48 ± 0.81	25.3 ± 0.33
298.15 K, x1 = 0.5504	868.19 ± 0.84	25.03 ± 0.33
298.15 K, x1 = 0.6	867.92 ± 0.88	24.78 ± 0.33
298.15 K, x1 = 0.6496	867.65 ± 0.91	24.54 ± 0.33
298.15 K, x1 = 0.7006	867.37 ± 0.95	24.32 ± 0.33
298.15 K, x1 = 0.75	867.13 ± 0.99	24.13 ± 0.33
298.15 K, x1 = 0.8002	866.88 ± 1	23.91 ± 0.34
298.15 K, x1 = 0.8499	866.67 ± 1.1	23.74 ± 0.34
298.15 K, x1 = 0.9006	866.45 ± 1.1	23.55 ± 0.34
298.15 K, x1 = 0.9477	866.27 ± 1.2	23.36 ± 0.34
298.15 K, x1 = 1	866.06 ± 1.2	23.15 ± 0.35
308.15 K, x1 = 0.0495	863.22 ± 0.58	27.75 ± 0.32
308.15 K, x1 = 0.0992	862.76 ± 0.6	27.26 ± 0.31
308.15 K, x1 = 0.149	862.3 ± 0.62	26.78 ± 0.31
308.15 K, x1 = 0.1998	861.84 ± 0.64	26.31 ± 0.31
308.15 K, x1 = 0.25	861.39 ± 0.67	25.89 ± 0.31
308.15 K, x1 = 0.2995	860.95 ± 0.7	25.52 ± 0.31
308.15 K, x1 = 0.3497	860.51 ± 0.72	25.17 ± 0.31
308.15 K, x1 = 0.4004	860.07 ± 0.75	24.83 ± 0.31
308.15 K, x1 = 0.4501	859.64 ± 0.78	24.52 ± 0.31
308.15 K, x1 = 0.4995	859.23 ± 0.82	24.21 ± 0.31
308.15 K, x1 = 0.5505	858.81 ± 0.85	23.94 ± 0.32
308.15 K, x1 = 0.5994	858.42 ± 0.88	23.69 ± 0.32
308.15 K, x1 = 0.65	858.02 ± 0.92	23.48 ± 0.32
308.15 K, x1 = 0.6987	857.63 ± 0.96	23.25 ± 0.32
308.15 K, x1 = 0.7505	857.25 ± 1	23.04 ± 0.32
308.15 K, x1 = 0.7986	856.89 ± 1	22.82 ± 0.32
308.15 K, x1 = 0.8497	856.54 ± 1.1	22.67 ± 0.33
308.15 K, x1 = 0.8999	856.19 ± 1.1	22.48 ± 0.33
308.15 K, x1 = 0.9491	855.87 ± 1.2	22.32 ± 0.33
308.15 K, x1 = 1	855.51 ± 1.2	22.16 ± 0.33
313.15 K, x1 = 0.0506	859.06 ± 0.58	27.18 ± 0.31
313.15 K, x1 = 0.1002	858.55 ± 0.6	26.67 ± 0.31
313.15 K, x1 = 0.1499	858.03 ± 0.63	26.15 ± 0.31
313.15 K, x1 = 0.2001	857.52 ± 0.65	25.7 ± 0.31
313.15 K, x1 = 0.2505	857 ± 0.68	25.28 ± 0.31
313.15 K, x1 = 0.3001	856.51 ± 0.7	24.91 ± 0.31
313.15 K, x1 = 0.3502	856.01 ± 0.73	24.59 ± 0.31
313.15 K, x1 = 0.3995	855.53 ± 0.76	24.26 ± 0.31
313.15 K, x1 = 0.4501	855.03 ± 0.79	23.95 ± 0.31
313.15 K, x1 = 0.5001	854.56 ± 0.82	23.62 ± 0.31
313.15 K, x1 = 0.5503	854.08 ± 0.86	23.36 ± 0.31
313.15 K, x1 = 0.6007	853.61 ± 0.89	23.08 ± 0.31
313.15 K, x1 = 0.6492	853.16 ± 0.93	22.9 ± 0.31
313.15 K, x1 = 0.6997	852.71 ± 0.96	22.65 ± 0.31
313.15 K, x1 = 0.75	852.27 ± 1	22.46 ± 0.32
313.15 K, x1 = 0.801	851.82 ± 1	22.2 ± 0.32
313.15 K, x1 = 0.848	851.43 ± 1.1	22.09 ± 0.32
313.15 K, x1 = 0.8998	851.01 ± 1.1	21.89 ± 0.32
313.15 K, x1 = 0.9498	850.6 ± 1.2	21.77 ± 0.32
313.15 K, x1 = 1	850.16 ± 1.2	21.64 ± 0.33
